Assay results from patent US8470889B2 (TRT Pharma Inc., priority 2008, dated 2013).
Substitutions are numbered along the chain they refer to.

What was measured:
LNCaP cells = test: MTT cell growth inhibition, LNCaP;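 also: MTT formazan absorbance at 600 nm read after 72 h of compound exposure, IC50 fitted by nonlinear regression of dose-response curves, samples run in triplicate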; conditions: Part D table, 72 hours, I.A. = Inactive
H874Y mutated AR = target: T1, H874Y mutated AR (Homo sapiens, UniProt P10275, H875Y); test: Luciferase assay for AR transactivation, H874Y AR, PC-3 cells; assay type: cell-based; conditions: test compound 1 μM, 0.1 nM DHT
T1 sequence (P10275 1-920 H875Y): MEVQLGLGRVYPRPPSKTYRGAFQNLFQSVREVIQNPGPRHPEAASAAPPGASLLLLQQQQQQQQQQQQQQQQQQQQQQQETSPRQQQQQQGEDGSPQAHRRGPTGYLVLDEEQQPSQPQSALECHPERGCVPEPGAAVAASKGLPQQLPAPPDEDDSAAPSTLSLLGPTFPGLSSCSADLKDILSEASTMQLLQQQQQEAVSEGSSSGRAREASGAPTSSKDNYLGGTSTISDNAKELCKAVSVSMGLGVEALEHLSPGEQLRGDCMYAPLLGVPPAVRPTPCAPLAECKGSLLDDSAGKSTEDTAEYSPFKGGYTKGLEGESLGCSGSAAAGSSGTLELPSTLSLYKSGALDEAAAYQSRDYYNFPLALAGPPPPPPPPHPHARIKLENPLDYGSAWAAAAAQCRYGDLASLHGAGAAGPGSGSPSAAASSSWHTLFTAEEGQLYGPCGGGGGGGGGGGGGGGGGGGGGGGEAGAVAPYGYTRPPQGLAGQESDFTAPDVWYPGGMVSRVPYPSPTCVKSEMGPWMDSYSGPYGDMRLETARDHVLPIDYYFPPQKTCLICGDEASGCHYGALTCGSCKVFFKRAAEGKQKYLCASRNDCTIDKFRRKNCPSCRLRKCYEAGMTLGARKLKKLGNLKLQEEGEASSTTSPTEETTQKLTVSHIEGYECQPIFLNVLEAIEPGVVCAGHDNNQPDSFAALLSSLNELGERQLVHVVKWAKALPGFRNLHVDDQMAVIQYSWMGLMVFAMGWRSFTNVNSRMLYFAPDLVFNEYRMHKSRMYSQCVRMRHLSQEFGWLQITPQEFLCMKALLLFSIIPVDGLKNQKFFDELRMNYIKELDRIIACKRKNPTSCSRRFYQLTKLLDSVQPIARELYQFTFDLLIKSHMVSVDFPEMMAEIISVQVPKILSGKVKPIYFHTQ
Protocol: (§1) PC-3 cells were transiently transfected with pCMV-MMTV-Luc, Renilla null luciferase and AR expressing plasmids. The cells were treated with 0.1 nM DHT with and without test compound for 24 hr. Relative luciferase activity was determined by dual luciferase assay kit (Promega), standardized to Renilla luciferase control and normalized to 0.1 nM DHT without test compound (100%).
(§2) After 16 h, the cells were treated with 0.1 nM of DHT and test compounds at the designated concentration. After further 24 h, the cells were lysed in 100 μL/well passive lysis buffer, and 20 μL of the cell lysates was used for detection of the luciferase activity using Dual Luciferase Assay System (Promega). All experiments were run in triplicate. Relative luciferase activity is determined as the ratio of inducible firefly luciferase luminescence divided by the luminescence of the renilla luciferase control normalized to 0.1 nM DHT without test compounds.
(§3) The potency of antagonistic activity: ++>+.

T877A mutated AR = target: T2, T877A mutated AR (Homo sapiens, UniProt P10275, T878A); test: Luciferase assay for AR transactivation, T877A AR, PC-3 cells; assay type: cell-based
T2 sequence (P10275 1-920 T878A): T1 sequence (P10275 1-920 H875Y) with Y875H, T878A
Protocol: as §1, §2, §3

C4-2B cells = test: MTT cell growth inhibition, C4-2B;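 also: cells treated with a dilution series for 72 h, then MTT added and absorbance read at 600 nm, IC50 fitted from dose-response curves by nonlinear regression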; conditions: Part D table, 72 hours, I.A. = Inactive
Protocol: (§4) MDA PCa 2b was seeded at the same density in medium BRFF-HPC1 (Athena Enzyme Systems, Baltimore, Md., USA) supplemented with 20% FBS. After overnight incubation, the medium was changed to a fresh medium containing different concentrations of test compounds diluted from stock DMSO solution. The final concentration of DMSO is 0.5%. After 72 h of incubation with test compounds, 20 μL of 3-(4,5-dimethyl thiazol-2-yl)-2,5-diphenyltetrazolium bromide (MTT) solution (5 mg/mL in PBS) were added to each well and incubated further for 2 h. Next, the supernatant was aspirated and the MTT formazan formed by metabolically viable cells was dissolved in 100 μL of isopropanol. The plates were mixed for 30 min, and the absorbance was measured at 600 nm on a plate reader (FLUOstar OPTIMA, BMG LabTech). All samples were in triplicate. The IC50 values were determined from dose-response curves by nonlinear regression using PRISM v5.00 (GraphPad Software Inc, La Jolla, Calif., USA).
(§5) The in vitro cytotoxicity of 1-20 were evaluated by MTT assays in a panel of prostate cancer cell lines, including LNCaP, MDA PCa 2b, 22Rv1, C4-2B and PC-3.

PC-3 cells = test: MTT cell growth inhibition, PC-3; conditions: Part D table, 72 hours, I.A. = Inactive
wild-type human AR = target: T3, wild-type human AR (Homo sapiens, UniProt P10275); test: Luciferase assay for AR transactivation, wild-type AR, PC-3 cells; assay type: cell-based; set-up: Antiandrogenic activity evaluated by luciferase assay in PC-3 cells WT: key to the marks not given beside the values; conditions: test compound 1 μM, 0.1 nM DHT
T3 construct: utilizing plasmid expressing a full length of AR; expressed in transfected cells; host or cells: PC-3 cells, plasmid pCMV-AR-wt
T3 sequence (P10275 1-920): T1 sequence (P10275 1-920 H875Y) with Y875H
Protocol: as §1, §2, §3
PC-3 cells were transiently transfected with plasmid expressing wild type human AR and MMTV-Luc. […] RLU, relative luciferase units, were normalized to that of 0.1 nM DHT alone.

MDA PCa 2b cells = test: MTT cell growth inhibition, MDA PCa 2b;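 also: MDA PCa 2b prostate cancer cells in BRFF-HPC1 with 20% FBS, exposed to compounds for 72 h, viable-cell MTT formazan read as absorbance at 600 nm, 0.5% DMSO vehicle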
Protocol: as §4, §5

22Rv1 cells = test: MTT cell growth inhibition, 22Rv1
[1] = 72 hrs, concentrations up to 50 μM, FIG. 2

`CC(C)(O)C(=O)Nc1ccc([N+](=O)[O-])c(C(F)(F)F)c1` [OHF, hydroxyflutamide, reference compound] was tested, and the “Cytotoxicity in prostate cancer cell lines IC50 (μM), LNCaP” value (LNCaP cells) was “I.A”, the “Antiandrogenic activity evaluated by luciferase assay in PC-3 cells H874Y” value (H874Y mutated AR) was “+” and the “agonist activity on T877A AR” value (T877A mutated AR; absence of DHT, PC-3 cells) was “activated”. The “Antiandrogenic activity evaluated by luciferase assay in PC-3 cells T877A” value (T877A mutated AR; test compound 1 μM, 0.1 nM DHT) was “Agonist”, the “Cytotoxicity in prostate cancer cell lines IC50 (μM), C4-2B” value (C4-2B cells) was “I.A” and the “Cytotoxicity in prostate cancer cell lines IC50 (μM), PC-3” value (PC-3 cells) was “I.A”. For the same compound, the “Antiandrogenic activity evaluated by luciferase assay in PC-3 cells WT” value (wild-type human AR) was “++”, the “growth inhibitory effect on PCa 2b cells” value (MDA PCa 2b cells; [1]) was “resistant” and the IC50 (MDA PCa 2b cells; read-out: Cytotoxicity in prostate cancer cell lines IC50 (μM), PCa-2b, Part D table, MTT, 72 hours) was > 50 µM. The “growth inhibitory effect on 22Rv1 cells” value (22Rv1 cells; [1]) was “resistant” and the IC50 (22Rv1 cells; read-out: Cytotoxicity in prostate cancer cell lines IC50 (μM), 22Rv1, Part D table, MTT, 72 hours) was > 50 µM.
